Results taken from US20210246115A1 (Bioimics AB, priority 2017, published 2021).
Where a name gives a salt, the structure may show the parent alone. Read-outs that look alike come from different tables or passages of the source.

What was measured:
[1] = system: E. coli JW5503 (efflux defective); test: MIC, E. coli JW5503 (efflux defective); type: cell-based; details: Escherichia coli, read-out: E. coli JW5503 (efflux defective) MIC
[2] = system: Staphylococcus aureus subsp. aureus (ATCC29213); test: MIC, broth microdilution (CLSI), Staphylococcus aureus ATCC29213; type: cell-based; details: Staphylococcus aureus, read-out: S. aureus ATCC 29213 MIC
[3] = system: Enterococcus faecalis (ATCC29212); test: MIC, broth microdilution (CLSI), Enterococcus faecalis; type: cell-based; details: ATCC29212, Table XIV A. Gram-positive bacteria, read-out: E. faecalis ATCC 29212 MIC
[4] = system: Escherichia coli (ATCC25922); test: MIC, broth microdilution (CLSI), Escherichia coli; details: Escherichia coli
[5] = system: S. aureus MRSA ATCC 33591; test: MIC, S. aureus MRSA ATCC 33591; type: cell-based; details: Staphylococcus aureus; Table XIV A. Gram-positive bacteria; read-out: S. aureus MRSA ATCC 33591 MIC
H. influenzae ATCC 49247 = test: MIC, H. influenzae ATCC 49247; type: cell-based; details: Haemophilus influenzae, ATCC49247; Table XIV B. Gram-negative bacteria
[6] = system: Staphylococcus aureus (ATCC25923); test: MIC, broth microdilution (CLSI), Staphylococcus aureus ATCC25923; details: Staphylococcus aureus, ATCC25923, read-out: S. aureus ATCC 25923 MIC
[7] = system: P. aeruginosa NTUH974 (MDR); test: MIC, P. aeruginosa NTUH974 (MDR); type: cell-based; details: Pseudomonas aeruginosa; Table XIV B. Gram-negative bacteria; read-out: P. aeruginosa NTUH974 (MDR) MIC
[8] = system: N. gonorrhoeae ATCC 700825; test: MIC, N. gonorrhoeae ATCC 700825; type: cell-based; details: Neisseria gonorrhoeae, ATCC700825; Table XIV B. Gram-negative bacteria
M. phlei ATCC 11758 = test: MIC, M. phlei ATCC 11758; type: cell-based; details: Mycolicibacterium phlei, ATCC11758; Table XIV A. Gram-positive bacteria
M. fortuitum ATCC 110 = test: MIC, M. fortuitum ATCC 110; type: cell-based; details: Mycolicibacterium fortuitum, ATCC110; Table XIV A. Gram-positive bacteria
A. baumannii ATCC 17978 = test: MIC, A. baumannii ATCC 17978; type: cell-based; details: Acinetobacter baumannii, ATCC17978; Table XIV B. Gram-negative bacteria
[9] = system: Pseudomonas aeruginosa (ATCC27853); test: MIC, broth microdilution (CLSI), Pseudomonas aeruginosa; type: cell-based; details: ATCC27853, Table XIV B. Gram-negative bacteria, read-out: P. aeruginosa ATCC 27853 MIC
S. pneumoniae ATCC 49619 = test: MIC, S. pneumoniae ATCC 49619; type: cell-based; details: Streptococcus pneumoniae, ATCC49619; Table XIV A. Gram-positive bacteria
K. pneumoniae ATCC 43816 = test: MIC, K. pneumoniae ATCC 43816; type: cell-based; details: Klebsiella pneumoniae, ATCC43816; Table XIV B. Gram-negative bacteria
[10] = system: S. aureus USA300 MRSA BAA-1717; test: MIC, S. aureus USA300 MRSA BAA-1717; type: cell-based; details: Staphylococcus aureus; Table XIV A. Gram-positive bacteria; read-out: S. aureus USA300 MRSA BAA-1717 MIC
[11] = system: E. coli RNase P RNA, M1 RNA; test: Inhibition of bacterial RNase P activity, IC50 determination (cleavage of pATSerUG by M1 RNA); type: biochemical; details: NI: No inhibition
E. faecium ATCC 700221 = test: MIC, E. faecium ATCC 700221; type: cell-based; details: Enterococcus faecium, ATCC700221; Table XIV A. Gram-positive bacteria; read-out: E. faecium ATCC 700221 MIC
H. pylori ATCC 43504 = test: MIC, H. pylori ATCC 43504; type: cell-based; details: Helicobacter pylori, ATCC43504; Table XIV B. Gram-negative bacteria
[12] = ATCC29213, Table XIV A. Gram-positive bacteria
[13] = ATCC25922, read-out: E. coli ATCC 25922 MIC, Table XIII
[14] = ATCC25922, read-out: E. coli ATCC 25922 MIC, Table XIV B. Gram-negative bacteria

## Cc1cccc(C(CCN[C@H]2CC[C@H](N)CC2)c2cn(CC3CCCCC3)c3ccccc23)c1 (stereo partly drawn) [Compound 199, (1R,4R)-N1-(3-(1-(cyclohexylmethyl)-1H-indol-3-yl)-3-(m-tolyl)propyl) cyclohexane-1,4-diamine hydrochloride]
[1]
  MIC: 4 µg/mL
[2]; ATCC29213, Table XIII
  MIC: 4 µg/mL
[2]; [12]
  MIC: 8 µg/mL
[3]
  MIC: 8 µg/mL
[4]; [13]
  MIC: 4 µg/mL
[4]; [14]
  MIC: 32 µg/mL
[5]
  MIC: 8 µg/mL
H. influenzae ATCC 49247
  MIC: 8 µg/mL
[6]
  MIC: 2 µg/mL
[7]
  MIC: 64 µg/mL
[8]
  MIC: 4 µg/mL
M. phlei ATCC 11758
  MIC: 2 µg/mL
M. fortuitum ATCC 110
  MIC: 2 µg/mL
A. baumannii ATCC 17978
  MIC: 8 µg/mL
[9]
  MIC: 32 µg/mL
S. pneumoniae ATCC 49619
  MIC: 16 µg/mL
K. pneumoniae ATCC 43816
  MIC: 16 µg/mL
[10]
  MIC: 4 µg/mL
[11]
  IC50: 9.8 µM
E. faecium ATCC 700221
  MIC: 4 µg/mL

## Cc1cccc(-c2ccc3c(c2)c(CCN[C@H]2CC[C@H](N)CC2)cn3CC2CCCCC2)c1 [Compound 225, (1R,4R)-N1-(2-(1-(cyclohexylmethyl)-5-(m-tolyl)-1H-indol-3-yl)ethyl)cyclohexane-1,4-diamine hydrochloride salt]
[1]
  MIC: 2 µg/mL
[2]; ATCC29213, Table XIII
  MIC: 2 µg/mL
[2]; [12]
  MIC: 2 µg/mL
[3]
  MIC: 2 µg/mL
[4]; [13]
  MIC: 2 µg/mL
[4]; [14]
  MIC: 2 µg/mL
[5]
  MIC: 2 µg/mL
H. influenzae ATCC 49247
  MIC: 4 µg/mL
[6]
  MIC: 2 µg/mL
[7]
  MIC: 16 µg/mL
[8]
  MIC: 2 µg/mL
M. phlei ATCC 11758
  MIC: 1 µg/mL
M. fortuitum ATCC 110
  MIC: 1 µg/mL
A. baumannii ATCC 17978
  MIC: 2 µg/mL
[9]
  MIC: 8 µg/mL
S. pneumoniae ATCC 49619
  MIC: 8 µg/mL
K. pneumoniae ATCC 43816
  MIC: 2 µg/mL
[10]
  MIC: 2 µg/mL
[11]
  IC50: 11.8 µM
E. faecium ATCC 700221
  MIC: 1 µg/mL

## COc1ccccc1-c1ccc2c(c1)c(CCCN[C@H]1CC[C@H](N)CC1)cn2CC1CCCCC1 [Compound 237, (1S,4S)-N1-(3-(1-(cyclohexylmethyl)-5-(2-methoxyphenyl)-1H-indol-3-yl)propyl)cyclohexane-1,4-diamine hydrochloride salt]
[1]
  MIC: 4 µg/mL
[2]; ATCC29213, Table XIII
  MIC: 4 µg/mL
[2]; [12]
  MIC: 2 µg/mL
[3]
  MIC: 2 µg/mL
[4]; [13]
  MIC: 4 µg/mL
[4]; [14]
  MIC: 4 µg/mL
[5]
  MIC: 4 µg/mL
H. influenzae ATCC 49247
  MIC: 8 µg/mL
[6]
  MIC: 2 µg/mL
[7]
  MIC: 16 µg/mL
[8]
  MIC: 2 µg/mL
M. phlei ATCC 11758
  MIC: 2 µg/mL
M. fortuitum ATCC 110
  MIC: 2 µg/mL
A. baumannii ATCC 17978
  MIC: 8 µg/mL
[9]
  MIC: 16 µg/mL
S. pneumoniae ATCC 49619
  MIC: 8 µg/mL
K. pneumoniae ATCC 43816
  MIC: 4 µg/mL
[10]
  MIC: 4 µg/mL
[11]
  IC50: 9.8 µM
E. faecium ATCC 700221
  MIC: 2 µg/mL

## Cc1cccc(C(CCNC2CCC(N)CC2)c2cn(CC3CCCCCC3)c3ccccc23)c1 [Compound 245, (1S,4S)-N1-(3-(1-(cycloheptylmethyl)-1H-indol-3-yl)-3-(m-tolyl)propyl)cyclohexane-1,4-diamine hydrochloride salt]
[1]
  MIC: 4 µg/mL
[2]; ATCC29213, Table XIII
  MIC: 4 µg/mL
[2]; [12]
  MIC: 4 µg/mL
[3]
  MIC: 4 µg/mL
[4]; [13]
  MIC: 4 µg/mL
[4]; [14]
  MIC: 4 µg/mL
[5]
  MIC: 4 µg/mL
H. influenzae ATCC 49247
  MIC: 8 µg/mL
[6]
  MIC: 1 µg/mL
[7]
  MIC: 16 µg/mL
[8]
  MIC: 2 µg/mL
M. phlei ATCC 11758
  MIC: 2 µg/mL
M. fortuitum ATCC 110
  MIC: 2 µg/mL
A. baumannii ATCC 17978
  MIC: 4 µg/mL
[9]
  MIC: 16 µg/mL
S. pneumoniae ATCC 49619
  MIC: 8 µg/mL
K. pneumoniae ATCC 43816
  MIC: 8 µg/mL
[10]
  MIC: 2 µg/mL
[11]
  IC50: 13 µM
E. faecium ATCC 700221
  MIC: 2 µg/mL

## NCCCNCCC(c1cccc(OC(F)(F)F)c1)c1cn(C2CCCCC2)c2ccccc12 (centres unmarked) [Compound 348, N1-(3-(1-cyclohexyl-1H-indol-3-yl)-3-(3-(trifluoromethoxy)phenyl)propyl)propane-1,3-diaminesalt]
[1]
  MIC: 2 µg/mL
[2]; ATCC29213, Table XIII
  MIC: 4 µg/mL
[2]; [12]
  MIC: 4 µg/mL
[3]
  MIC: 2 µg/mL
[4]; [13]
  MIC: 4 µg/mL
[4]; [14]
  MIC: 2 µg/mL
[5]
  MIC: 4 µg/mL
H. influenzae ATCC 49247
  MIC: 4 µg/mL
[7]
  MIC: 8 µg/mL
[8]
  MIC: 2 µg/mL
M. phlei ATCC 11758
  MIC: 4 µg/mL
M. fortuitum ATCC 110
  MIC: 4 µg/mL
A. baumannii ATCC 17978
  MIC: 4 µg/mL
H. pylori ATCC 43504
  MIC: 16 µg/mL
[9]
  MIC: 8 µg/mL
S. pneumoniae ATCC 49619
  MIC: 8 µg/mL
K. pneumoniae ATCC 43816
  MIC: 2 µg/mL
[10]
  MIC: 4 µg/mL
[11]
  IC50: 4.5 µM
E. faecium ATCC 700221
  MIC: 2 µg/mL

## Cc1cccc(C(CCNCCCN)c2cn(C3CCCCC3)c3cc(Br)ccc23)c1.Cl.Cl (centres unmarked) [Compound 357, N1-(3-(6-bromo-1-cyclohexyl-1H-indol-3-yl)-3-(m-tolyl)propyl)propane-1,3-diamine hydrochloride salt]
[1]
  MIC: 4 µg/mL
[2]; ATCC29213, Table XIII
  MIC: 4 µg/mL
[2]; [12]
  MIC: 2 µg/mL
[3]
  MIC: 2 µg/mL
[4]; [13]
  MIC: 4 µg/mL
[4]; [14]
  MIC: 2 µg/mL
[5]
  MIC: 2 µg/mL
H. influenzae ATCC 49247
  MIC: 2 µg/mL
[7]
  MIC: 4 µg/mL
[8]
  MIC: 2 µg/mL
M. phlei ATCC 11758
  MIC: 4 µg/mL
M. fortuitum ATCC 110
  MIC: 4 µg/mL
A. baumannii ATCC 17978
  MIC: 4 µg/mL
H. pylori ATCC 43504
  MIC: 16 µg/mL
[9]
  MIC: 4 µg/mL
S. pneumoniae ATCC 49619
  MIC: 8 µg/mL
K. pneumoniae ATCC 43816
  MIC: 2 µg/mL
[10]
  MIC: 2 µg/mL
[11]
  IC50: 10 µM
E. faecium ATCC 700221
  MIC: 1 µg/mL

## Cc1cccc(-c2ccc3c(c2)c(CCCNCCCN)cn3C2CCCCC2)c1.Cl.Cl [Compound 360, N1-(3-(1-cyclohexyl-5-(m-tolyl)-1H-indol-3-yl)propyl)propane-1,3-diamine hydrochloride salt]
[1]
  MIC: 2 µg/mL
[2]; ATCC29213, Table XIII
  MIC: 4 µg/mL
[2]; [12]
  MIC: 4 µg/mL
[3]
  MIC: 2 µg/mL
[4]; [13]
  MIC: 4 µg/mL
[4]; [14]
  MIC: 2 µg/mL
[5]
  MIC: 2 µg/mL
H. influenzae ATCC 49247
  MIC: 2 µg/mL
[7]
  MIC: 8 µg/mL
[8]
  MIC: 2 µg/mL
M. phlei ATCC 11758
  MIC: 4 µg/mL
M. fortuitum ATCC 110
  MIC: 4 µg/mL
A. baumannii ATCC 17978
  MIC: 4 µg/mL
H. pylori ATCC 43504
  MIC: 8 µg/mL
[9]
  MIC: 8 µg/mL
S. pneumoniae ATCC 49619
  MIC: 8 µg/mL
K. pneumoniae ATCC 43816
  MIC: 4 µg/mL
[10]
  MIC: 2 µg/mL
[11]
  IC50: 7.8 µM
E. faecium ATCC 700221
  MIC: 2 µg/mL
